{"source": "patent US10898548B2", "about": "“Modulators of protein tyrosine phosphatase and uses thereof” (LEUVAS THERAPEUTICS, priority 2015, dated 2021)", "format_in_all_cases": "in vivo, mouse", "key": {"[1]": {"assay": "body weight as a measure of toxicity", "conditions": "Wild-type and Hbb^3th/+ mice; 5 mg/kg i.p once every other day for 3 weeks", "experimental": "Wild-type and Hbb^3th/+ were treated with TAT-ICD at 5 mg/kg i.p once every other day for 3 weeks. […] Hematological parameters, red blood cell indices and reticulocyte counts were determined using standard procedures. Table 37 summarizes the effect of treatment of WT and HBB mice with TAT-ICD9 on key hematological parameters and red cell indices."}, "[2]": {"test_system": "Hbb^th3/+ mice (β-thalassemia model)", "assay": "percent of soluble alpha globin in red cells", "conditions": "TAT-ICD 5 mg/kg i.p once every other day for 3 weeks", "excerpt": "We also observed a significant improvement in the α/β globin ratio with treatment of beta-thalassemic mice, a key measure of successful treatment of beta-thalassemia. The mutations in the beta-globin gene in beta-thalassemia results in absent or reduced synthesis of beta-globin chains leading to unbalanced globin chain synthesis and unpaired alpha-chain that form highly toxic aggregates in erythroid progenitors and red blood cells, and can be measured as a decrease in soluble alpha globulin. We measured the amount of soluble vs insoluble globulin not bound to heme (Table 38) and observed a significant (P<0001; 2 tailed T test) decrease in the percent of soluble alpha-globin in the beta-thalassemic mice compared to wild type mice (Table 38)."}, "[3]": {"test_system": "Hbb^th3/+ mice (β-thalassemia model)", "assay": "reactive oxygen species (ROS) levels, CM-H2DCFDA", "conditions": "for mean ROS level in red cells: TAT-ICD 5 mg/kg i.p once every other day for 3 weeks", "experimental": "Reactive oxygen species (ROS) are known to be increased in red blood cells in β-thalassemia and are thought to be important in the pathophysiology of the disease, leading to cumulative cell damage. The reactive oxygen species (ROS) levels from erythroid precursor populations was assessed using the General Oxidative Stress Indicator CM-H2DCFDA (Life Technologies, Carlsbad, Calif.) as described (Matte A. et al 2015 Antioxid. Redox Signal 23(16):1284-1297). […] Data are the mean ROS level."}, "[4]": {"test_system": "Hbb^th3/+ mice (β-thalassemia model)", "assay": "circulating erythroblasts", "conditions": "TAT-ICD 5 mg/kg i.p once every other day for 3 weeks"}, "[5]": {"test_system": "Hbb^th3/+ mice (β-thalassemia model)", "assay": "bone marrow erythroid precursors by flow cytometry (CD44, TER119)", "conditions": "for percent of bone marrow erythroid precursors (fsc high CD44+TER119+ cells), Mean: ICD-Treated, 3 weeks", "experimental": "(§1) Wild-type C57BL/6J mice and the mouse model for β-thalassemia (designated as Hbb^th3/+) were used for these studies. Flow cytometric analysis and sorting of mouse bone marrow and spleen precursors were performed using standard protocols using markers for CD44 and TER119 and cell size (forward scatter) to distinguish erythroid precursors at each distinct developmental stage. Forward scatter high-CD44+Ter119+ cells represents total erythroblasts (or erythroid mass in bone marrow or spleen). These erythroblasts can be further analyzed and sorted in subpopulations: population I: pro-erythroblasts; population II: basophilic erythroblasts; population III: polychromatic erythroblasts; population IV: orthochromatic erythroblasts, as described in Matte et al 2015, Antioxid. Redox Signal. 2015 23(16):1284-1297. Population II, III and IV corresponding to basophilic erythroblasts, polychromatic erythroblasts and orthochromatic erythroblasts were sorted from bone marrow as previously described (Matte et al 2015 Antioxid. Redox Signal. 2015 23(16):1284-1297).\nIneffective erythropoiesis in β-thalassemia is characterized by a block in cell maturation with accumulation of erythroid precursors and increased cell apoptosis in late phase erythropoiesis in the bone marrow.\nTreatment of Hbb^th3/+ mice with PTPRG ICD results in a statistically significant increases in the percent of proerythroblasts (P<0.001) back to normal levels (5.9+/−0.6). In addition, ROS levels, which are increased in all four populations in Hbb mice compared to wild type mice are decreased PTPRG ICD-treated mice in all four populations, in agreement with the decrease in ROS levels in circulating red cells (Table 39)."}, "[6]": {"test_system": "Hbb^th3/+ mice (β-thalassemia model)", "assay": "apoptosis of bone marrow orthochromatic erythroblasts (Annexin-V PE)", "conditions": "ICD-Treated, 3 weeks", "experimental": "One of the hallmarks of β-thalassemia is increased apoptosis of late-stage erythroblasts. Apoptosis of population IV (orthochromatic erythroblasts) was assessed using standard protocols using the Annexin-V PE apoptosis kit following manufacturer instructions. Data are the mean percent of apoptotic cells (Table 42)."}, "[7]": {"test_system": "Hbb^th3/+ mice (β-thalassemia model)", "assay": "extramedullary erythropoiesis in spleen", "conditions": "treated mice, 3 weeks", "experimental": "as §1"}}, "note": "Marks after values point to notes of the source that are not given here.", "data": [{"substance": "TAT-ICD: fusion recombinant protein SEQ ID 5: PTPRG intracellular domain aa 797-1445 fused to 13 aa TAT sequence", "values": [{"measurement": "body weight as a measure of toxicity", "setting": "[1]", "value": "no changes were observed"}, {"measurement": "percent of soluble alpha globulin", "setting": "[2]; Hbb^th3/+ mice, Vehicle-treated 87.9", "value": "92.5* %"}, {"measurement": "percent of soluble alpha globulin", "setting": "[2]; Wild-type mice, Vehicle-treated 98.4", "value": 97.9, "unit": "%"}, {"measurement": "ROS levels in bone marrow erythroid precursor populations I-IV", "setting": "[3]; Hbb mice, all four populations", "value": "decreased"}, {"measurement": "mean ROS level in red cells", "setting": "[3]; Hbb^th3/+ mice, Untreated 13.75", "value": "9.73*"}, {"measurement": "mean ROS level in red cells", "setting": "[3]; Wild-type mice, Untreated 3.32", "value": 2.79}, {"measurement": "circulating erythroblasts", "setting": "[4]; Hbb^th3/+ mice, Vehicle-treated 32.0", "value": "10.8*"}, {"measurement": "circulating erythroblasts", "setting": "[4]; Wild-type mice, Vehicle-treated 0", "value": 0}, {"measurement": "percent of bone marrow erythroid precursors (fsc high CD44+TER119+ cells), Mean", "setting": "[5]; Hbb^th3/+ mice", "value": "23.8* percent"}, {"measurement": "percent of bone marrow erythroid precursors (fsc high CD44+TER119+ cells), Mean", "setting": "[5]; Wild-type mice", "value": 13.9, "unit": "%"}, {"measurement": "percent of pro-erythroblasts (population I) in bone marrow", "setting": "[5]; treated Hbb^th3/+ mice, untreated Hbb^th3/+ 3.6+/−0.9, wild-type 6.5+/−0.9", "value": "5.9+/−0.6%"}, {"measurement": "mean percent of apoptotic cells, bone marrow orthochromatic erythroblasts (population IV)", "setting": "[6]; Hbb^th3/+ mice", "value": "5.75* percent"}, {"measurement": "mean percent of apoptotic cells, bone marrow orthochromatic erythroblasts (population IV)", "setting": "[6]; Wild-type mice", "value": 4.20, "unit": "%"}, {"measurement": "extramedullar erythropoiesis in spleen", "setting": "[7]", "value": "trend to reduction"}]}]}
